Assay results published in patent publication US10881110B2, “Herbicidal compositions comprising isoxazolo[5,4-b]pyridines” (BASF SE, priority 2014, dated 2021).

Key:
Test in all cases: greenhouse post-emergence herbicidal test
[1] = system: GERDI; format: in vivo, Geranium dissectum; details: Geranium dissectum, post-emergence, 480 h, read-out: herbicidal activity against GERDI found
Procedure: (§1) The culture containers used were plastic pots containing medium loamy sand with approximately 4.6% of humus and 69.9% sand as substrate. The seeds of the test plants were sown separately for each species.
(§2) For the post-emergence treatment, the test plants were grown to a plant height of from 1 to 15 cm, depending on the plant habit, and only then treated with the active compounds which had been suspended or emulsified in water. To this end, the test plants were either sown directly, and grown in the same containers, or they were first grown separately as seedlings and transplanted into the test containers a few days prior to treatment.
(§3) Depending on the species, the plants were kept at 10-25° C. and 20-35° C., respectively.
(§4) The test period extended over 1 to 3 weeks. During this time, the plants were tended and their response to the individual treatments was evaluated 20 days after treatment except mentioned otherwise.
(§5) Evaluation was carried out using a scale from 0 to 100. 100 means no emergence of the plants, or complete destruction of at least the above-ground parts, and 0 means no damage or normal course of growth.
(§6) The respective stated components A and B, and, if appropriate, C, were formulated as a 10% by weight strength emulsion concentrate and, with addition of the amount of solvent system, introduced into the spray liquor used for applying the active compound. In the examples, the solvent used was water.
(§7) In the examples below, using the method of S. R. Colby (1967) “Calculating synergistic and antagonistic responses of herbicide combinations”, Weeds 15, p. 22 ff., the value E, which is expected if the activity of the individual active compounds is only additive, was calculated. E=X+Y−(X·Y/100)

[2] = system: MATCH; format: in vivo, Matricaria recutita; parameters: key to herbicidal activity against MATCH found: rating on a scale from 0 to 100
Procedure: as §1, §2, §3, §4, §5, §6, §7

[3] = system: IPOHE; format: in vivo, Ipomoea hederacea; details: Ipomoea hederacea, post-emergence, 480 h, post emergence; 0.5 g/ha a.i.; read-out: herbicidal activity against IPOHE found
Procedure: as §1, §2, §3, §4, §5, §6, §7

[4] = system: PAPRH; format: in vivo, Papaver rhoeas; parameters: key: rating on a scale from 0 to 100; details: 0.5 g/ha a.i.
Procedure: as §1, §2, §3, §4, §5, §6, §7

[5] = system: ERICA; format: in vivo, Conyza canadensis; details: Erigeron canadensis, post-emergence, 480 h, read-out: herbicidal activity against ERICA found
Procedure: as §1, §2, §3, §4, §5, §6, §7

[6] = system: POLCO; format: in vivo, Polygonum convolvulus; parameters: key to herbicidal activity against POLCO found: rating on a scale from 0 to 100; details: for herbicidal activity against POLCO found: post emergence, 20 days after treatment
Procedure: as §1, §2, §3, §4, §5, §6, §7

[7] = system: ECHCG; format: in vivo, Echinochloa crus-galli; parameters: key to herbicidal activity against ECHCG found / herbicidal activity against ECHCH found: scale 0 to 100
Procedure: as §1, §2, §3, §4, §5, §6, §7

[8] = system: ALOMY; format: in vivo, Alopecurus myosuroides; details: Alopecurus myosuroides, post-emergence, 480 h, read-out: herbicidal activity against ALOMY found
Procedure: as §1, §2, §3, §4, §5, §6, §7

[9] = system: KCHSC; format: in vivo, Kochia scoparia; details: Bassia scoparia, post-emergence, 480 h, read-out: herbicidal activity against KCHSC found
Procedure: as §1, §2, §3, §4, §5, §6, §7

[10] = system: VIOAR; format: in vivo, Viola arvensis; details: Viola arvensis, post-emergence, read-out: herbicidal activity against VIOAR found
Procedure: as §1, §2, §3, §4, §5, §6, §7

[11] = Echinochloa crus-galli, post-emergence, 480 h, read-out: herbicidal activity against ECHCG found

## CCS(=O)(=O)c1cccnc1S(=O)(=O)NC(=O)Nc1nc(OC)cc(OC)n1 [B.59, rimsulfuron]
[1]; post emergence, 0.5 g/ha a.i.
  pest or weed control at 0.5 g/ha: 75%
[2]; Matricaria chamomilla, post-emergence, 480 h, post emergence, 0.5 g/ha a.i., read-out: herbicidal activity against MATCH found
  pest or weed control at 0.5 g/ha: 75%
[3]
  pest or weed control at 0.5 g/ha: 90%
[4]
  herbicidal activity against PAPRH found: 65
[5]; post emergence, 0.5 g/ha a.i.
  pest or weed control at 0.5 g/ha: 65%

## CSc1nnc(C(C)(C)C)c(=O)n1N [B.79, metribuzin]
[2]; post emergence, a.i. g/ha: I.1 20.8, B.79 25, 20 days after treatment
  herbicidal activity against MATCH found: 65%
[6]; a.i. g/ha: I.1 20.8, B.79 25
  herbicidal activity against POLCO found: 20%
[6]; a.i. g/ha: I.1 62.5, B.79 25
  herbicidal activity against POLCO found: 20%
[7]; post emergence, a.i. g/ha: I.1 62.5, B.79 25, 20 days after treatment
  herbicidal activity against ECHCG found: 20%

## COC(=O)c1c(Cl)nn(C)c1S(=O)(=O)NC(=O)Nc1nc(OC)cc(OC)n1 [halosulfuron-methyl]
[7]; [11]
  pest or weed control at 5 g/ha: 45%
[8]
  pest or weed control at 5 g/ha: 10%

## CS(=O)(=O)c1ccc(C(=O)C2C(=O)CCCC2=O)c(Cl)c1 [B.104, sulcotrione]
[1]
  pest or weed control at 15 g/ha: 45%
[2]; Matricaria chamomilla, post-emergence, 480 h, read-out: herbicidal activity against MATCH found
  pest or weed control at 15 g/ha: 10%
[6]; Fallopia convolvulus, post-emergence, 480 h, read-out: herbicidal activity against POLCO found
  pest or weed control at 15 g/ha: 90%
[7]; [11]
  pest or weed control at 15 g/ha: 80%
[9]
  pest or weed control at 15 g/ha: 90%
[10]
  pest or weed control at 15 g/ha: 85%
[5]
  pest or weed control at 15 g/ha: 75%
